# According to US6737407B1, “Treatment of obesity” (Metabolic Pharmaceuticals, Ltd., priority 1997, dated 2004):
# Where no end group is shown, it is not given here.
# Key:
# C57BL/6J (ob/ob) mice [1] = test: Chronic 18-day treatment of obese mice with hGH 177-191: body weight gain, food consumption, adipose tissue weight; type: in vivo, mouse; conditions: for Initial body wt.: treated group, before 18-day daily i.p. 200 μg/kg
# Method: FIGS. 1A & 1B show the effect of hGH 177-191 peptide on cumulative body weight gains in male (1A) and female (1B) C57BL/6J (ob/ob) mice during the 18-day treatment period. Animals were given a daily intraperitoneal injection of 0.1 ml of either saline or hGH 177-191 (200 μg/kg body weight). Each points represents the mean±SEM of 6 animals.
# FIGS. 2A & 2B show the average daily food consumption (g/mouse/day) of C57BL/6J (ob/ob) mice during an 18day treatment period with hGH 177-191. The treatment for the four groups of animals was as described in FIGS. 1A & 1B. Each point represents the mean±SEM of 6 animals.
# The animals of the same age and same sex were randomly divided into two groups, housed 6 per cage and maintained on a normal 12-hr light/dark cycle at a constant room temperature of 25° C. in the animal house of the Department of Biochemistry and—Molecular Biology, Monash University, Clayton, Australia. Animals were fed ad libitum on pre-determined quantity of animal pellets (Clark King, Melboume, Australia) and allowed free access to water at all times. The animals were given a daily intraperitoneal (i.p) injection of 0.1 ml of either the synthetic peptide (200-500 μg/kg body weight) or equivalent volume of physiological saline (0.9% sodium chloride) for appropriate number of days. The i.p. injection was administered with a 30G×½″ (0.31×13 mm) needle on a 1-ml disposable tuberculin syringes, and the site of injection was the lower left quadrant of the abdomen of the animals. To study the effects of controlled-delivery of hGH 177-191 and analogues, slow-release peptide-pellets in a diameter of 3 mm were implanted intradermally in the abdominal region of Zucker rats under anaesthesia. The body weight and food intake were monitored for the periods of time as indicated.
# Cumulative weight gain and food consumption were determined at 3-day intervals by the measurements of body weight and uneaten food remaining in the cages. The animals were placed in a covered chamber to minimise movement during the weighing procedure. The food consumption data were obtained by subtracting the amount of uneaten food remaining in the cages from the original provision.
# The procedure for the isolation and measurement of intact epididymal fat pads was established in previous studies of epididymal growth of GH-deficient (lit/lit) mice. In the present study, white adipose tissues, either whole epididymal or parametrical fat pads, were excised with the identical techniques as previously described^22 from the mice immediately after sacrifice. The tissues were washed in cold physiological saline, blotted and weighed. For ex vivo lipogenic assays, the portions of adipose tissues without blood vessels were used.
# [2] = test system: Zucker fatty (fa/fa) rats; test: Chronic treatment of Zucker fatty rats: body weight gain and food consumption; type: in vivo, rat; conditions: throughout the treatment period
# Method: Animals were given a daily intraperitoneal injection of either saline or the peptide (500 μg/kg body weight) (3A) or implanted intradermally with a slow-release tablet (500 μg/day/kg body weight) in the lower quadrant of the abdomen of the animals. The control group was implanted with a placebo tablet in the same manner. Each point represents the mean±SEM of 6 animals.
# The treatment for the four groups of animals was as described in FIGS. 3A & 3B. Each point represents the mean±SEM of 6 animals.
# The animals of the same age and same sex were randomly divided into two groups, housed 6 per cage and maintained on a normal 12-hr light/dark cycle at a constant room temperature of 25° C. in the animal house of the Department of Biochemistry and—Molecular Biology, Monash University, Clayton, Australia. Animals were fed ad libitum on pre-determined quantity of animal pellets (Clark King, Melboume, Australia) and allowed free access to water at all times. […] The body weight and food intake were monitored for the periods of time as indicated.
# Cumulative weight gain and food consumption were determined at 3-day intervals by the measurements of body weight and uneaten food remaining in the cages. […]
# [3] = test system: adipose tissue of the C57BL/6J (ob/ob) mice; test: Ex vivo lipolysis in adipose tissue of treated ob/ob mice (glycerol release); parameters: species or system mouse; conditions: both sexes, ob/ob mice after 18-day treatment
# Method: FIGS. 6A & 6B depict the ex vivo effect on lipolysis in adipose tissue of the C57BL/6J (ob/ob) male mice (6A) and female mice (6B) after 18-days treatment with hGH 177-191. […] Values are mean±SEM of 12 determinations from 6 animals of each group. The differences between the hGH 177-191 treated and saline control groups were statistically significant.
# Adipose tissues were removed from animals and sliced into segments of approximately 200 mg each. Then the tissues were pre-incubated in 25 ml vials containing 2 ml of Krebs-Ringerbicarbonate (KRB) buffer, 4% defatted BSA and 5.5 mM glucose under an atmosphere of carbogen (95%O2/ 5%CO2) at 37° C. for 1 hour. Tissues were then transferred to another vials with fresh medium and the incubation was initiated by adding hGH 177-191 peptide or analogues into the vials. The mixtures were then incubated at 37° C. for 90 minutes. After incubation, the tissues wee removed and aliquots (200 μl) of samples withdrawn from the medium were assayed for the contents of glycerol or free fatty acid (FFA) either by the enzyme assay (glycerol kinase) or calorimetric (copper-dye) spectrometry. The NADH or color produced was then monitored by the absorption at 340 nm and 610 nm, respectively.
# [4] = test system: isolated adipocytes of normal rats; test: Diacylglycerol (DAG) release from isolated adipocytes; type: cell-based, rat
# Method: FIG. 8 illustrates the in vitro effect of hGH 177-191 on the release of diacylglycerol from isolated adipocytes of normal rats over an incubation period of 40 min. Diacylglycerol was quantitated using radioenzymic assay and the results were expressed as % increase over the basal levels.
# Diacylglycerol released from isolated adipose tissue or adipocytes was quantitated using a radioenzymic assay, employing E coli DAG kinase and defined mixed micelle conditions to solubilize DAG and allow its quantitative conversion to [^33p] phosphatidic acid in the presence of [^33p]-γ-ATP.
# C57BL/6J (ob/ob) mice [5] = test: Plasma triglyceride and total cholesterol in obese mice after 18-day chronic treatment; type: in vivo, mouse; conditions: for Plasma total cholesterol / Plasma triglyceride: after 18-day treatment
# Method: The animals were anaesthetised with sodium pentobarbitone (80 mg/kg body weight) 12 hr after the last dose of hGH 177-191. Blood samples were collected from the tail vein of anaesthetised animals 45 mins after the administration of anaesthetic. After being centrifuged at 2000×g for 5 minutes, plasma was removed from the samples and used for metabolite assays. Triglyceride and total cholesterol in plasma were measured by enzyme-spectrophotometric methods. The reagents are based on either a modified glycerol phosphate oxidase (GPO)-Trinder's type colour reaction^24 or a cholesterol oxidase-4-aminoantipyrine method^25. All assays were performed with the CentrifiChem System 400 (Union Carbide) containing an automated pipetter, a centrifugal analyser and a recording spectrophotometer. Seronorm Lipid (Nycomed Pharma Co., Oslo, Norway) was used as the calibrator.
# [6] = female ob/ob mice, 18-day daily i.p. 200 μg/kg
# [7] = male ob/ob mice, 18-day daily i.p. 200 μg/kg
sequence,measurement,setting,value
LRIVQCRSVEGSCGF (cysteine pairing not given here) [Ref No. 9401],average daily body weight gain lower than control,C57BL/6J (ob/ob) mice [1]; both male and female ob/ob mice,approximately 27%
same,Adipose tissue (intact parametrical fat pads),C57BL/6J (ob/ob) mice [1]; [6],3.26 g
same,Body wt. gain,C57BL/6J (ob/ob) mice [1]; [6],4.0 g
same,Final body wt.,C57BL/6J (ob/ob) mice [1]; [6],52.2 g
same,daily body weight gain,C57BL/6J (ob/ob) mice [1]; [6],0.22 ± 0.04 g/day
same,reduction of adipose tissue weight versus control,"C57BL/6J (ob/ob) mice [1]; female ob/ob mice, parametrical fat pads",≤ 12%
same,Initial body wt.,C57BL/6J (ob/ob) mice [1]; female ob/ob mice,48.2 g
same,cumulative body weight gain versus control (in words),"C57BL/6J (ob/ob) mice [1]; male and female ob/ob mice, 18-day daily i.p. 200 μg/kg",clear reduction
same,average daily food consumption versus control (in words),"C57BL/6J (ob/ob) mice [1]; male and female ob/ob mice, 18-day treatment",no significant difference
same,Adipose tissue (intact epididymal fat pads),C57BL/6J (ob/ob) mice [1]; [7],2.52 ± 0.25 g
same,Body wt. gain,C57BL/6J (ob/ob) mice [1]; [7],2.9 ± 0.6 g
same,Final body wt.,C57BL/6J (ob/ob) mice [1]; [7],51.5 ± 2.3 g
same,daily body weight gain,C57BL/6J (ob/ob) mice [1]; [7],0.16 ± 0.04 g/day
same,reduction of adipose tissue weight versus control,"C57BL/6J (ob/ob) mice [1]; male ob/ob mice, epididymal fat pads",up to 20%
same,Initial body wt.,C57BL/6J (ob/ob) mice [1]; male ob/ob mice,48.6 ± 2.0 g
same,food consumption (in words),[2],unchanged
same,lipolytic activity in adipose tissues of treated animals (in words),[3],increase significantly
same,production/release of diacylglycerol (in words),[4],activation of the production
same,plasma levels of triglyceride versus control (in words),"C57BL/6J (ob/ob) mice [5]; both sexes, ob/ob mice",did not influence
same,plasma levels of cholesterol versus control (in words),C57BL/6J (ob/ob) mice [5]; female ob/ob mice,only slightly lower
same,Plasma total cholesterol,C57BL/6J (ob/ob) mice [5]; female ob/ob mice,2.84 ± 0.29 mmol/L
same,Plasma triglyceride,C57BL/6J (ob/ob) mice [5]; female ob/ob mice,0.38 ± 0.11 mmol/L
same,Plasma triglyceride,C57BL/6J (ob/ob) mice [5]; male ob/ob mice,0.58 ± 0.16 mmol/L
same,Plasma total cholesterol,"C57BL/6J (ob/ob) mice [5]; male ob/ob mice, listed as hGH 177-191",3.52 ± 0.39 mmol/L
